Data set [1] deals with renarcotization. In words: simulated renarcotization, supplemental opioid dose after rescue. The settings on record: for survival (rescue rate) after initial opioid overdose: initial overdose 400 mg/kg.
Experimental: Experiments were conducted to examine the effect of the prodrug of the present invention in a simulated renarcotization situation.
The nature of data set [2]: naloxone in serum of injected mice by LCMS. Format: in vivo. Here is the method:
After 30 minutes the mice were sacrificed. Blood was harvested and allowed to coagulate. Serum was harvested. A small amount of naloxone-D5 was spiked in, 9 vol of MeOH were added, and cooled for 30 min. After centrifugation the supernatant from each sample was dried and submitted to LCMS. […] FIG. 7 is a graph showing the results of the experiment.
Another experiment was conducted following the methodology of Example 1, except the mice were sacrificed at 2 hours instead of 30 minutes. FIG. 8 is a graph showing the results of the experiment.

Data set [3] concerns 4-NHE (marker of ROS damage). Description: ROS changes in blood of mice, ELISA for 4-NHE. The following applies: for effect on ROS levels: injected together with morphine. From the text:
This was accomplished using an ELISA assay for 4-NHE that is a marker of ROS damage. See FIG. 9A for an illustration of the process. After a short period, serum was collected and quantification of 4-NHE against spiked blood standards was accomplished using an appropriate antibody.

A short description of data set [4]: max solubility in 1×PBS, 20% PEG400. The data set is classed as physicochemical. The following applies: 1×PBS with 20% PEG400, aqueous with cosolvent or surfactant or cyclodextrin.
Data set [5] concerns opioid-induced respiratory failure and death. In words: rescue of mice from lethal dose of morphine (survival). Format: in vivo. Here is the method: Experiments were conducted to determine if NPD-2 can rescue a mouse from opioid-induced respiratory failure and death. Mice were administered a lethal dose of morphine by injection intraperitoneally (IP, 400 mg/kg). […] A survival percentage was calculated and graphed.

For data set [6] the following is noted: in vivo; cited from earlier work.
[7] abbreviates: 2 mg/kg IP 15 min after morphine 400 mg/kg IP.
Setting [8] is: 4 mg/kg IP 15 min after morphine 400 mg/kg IP.
Where [9] appears, read: 7 mg/kg IP 15 min after morphine 400 mg/kg IP.
[10] abbreviates: 15 mg/kg IP 15 min after morphine 400 mg/kg IP.
Where [11] appears, read: 6 mg/kg IP 15 min after morphine 400 mg/kg IP.

Values after ≈ are worked out from the molar mass of the structure shown.

As for `C=CCN1CCC23c4c5ccc(OCc6ccc(B(O)O)cc6)c4O[C@@H]2C(=O)CC[C@@]3(O)C1C5` (some centres unmarked) [PS-NPD-2], the “survival (rescue rate) after initial opioid overdose” value in data set [1] (15 mg/kg) is given as 80%. Besides, the “number of surviving animals after supplemental opioid” value in data set [1] (prodrug 15 mg/kg vs naloxone 6 mg/kg, supplemental opioid dose 25 mg/kg, N=8 each group) was “higher number of surviving animals than naloxone”. In addition, the half-life result in data set [2] (inferred from 2 hour naloxone level in mice) is recorded as “potentially longer half-life”. The “naloxone concentration in blood/serum” value in data set [2] (mice, 30 minutes after injection, LCMS) was “higher concentrations of naloxone”. Also, the “naloxone in blood compared to naloxone” value in data set [2] (mice, 2 hours after injection, LCMS) is “more naloxone in mice blood compared to naloxone”. Further, the “effect on ROS levels” value in data set [3] is listed as “reduces the ROS levels back to saline treated levels”. In data set [4], the solubility is about 50 mg/mL (≈ 108 mM). Further, the “# dead” value came to 8 in data set [5] (setting [7]), 1 in data set [5] (setting [8]), 4 in data set [5] (setting [9]) and 1 in data set [5] (setting [10]). In addition, the Survival percent in data set [5] (setting [7]) amounted to 0%; in data set [5] (setting [8]), 0%; in data set [5] (setting [9]), 0%; in data set [5] (setting [10]) it was 87.5%. Moreover, the Survival rate in data set [5] (setting [7]) is recorded as 0; in data set [5] (setting [8]), 0; in data set [5] (setting [9]), 0; in data set [5] (setting [10]), 0.875.

As for `CN1CC[C@]23c4c5ccc(O)c4O[C@H]2[C@@H](O)C=C[C@H]3[C@H]1C5` [morphine, reference compound], the “increase of ROS (4-NHE)” value in data set [3] (mouse serum, compound alone) is recorded as “more than 10 fold”. For the same molecule, in data set [5] (morphine 400 mg/kg IP alone), the “# dead” value is 2, the Survival percent stood at 0% and the Survival rate was determined as 0.

For the molecule `C=CCN1CC[C@]23c4c5ccc(O)c4O[C@H]2C(=O)CC[C@@]3(O)[C@H]1C5` [naloxone, reference compound], the “survival (rescue rate) after initial opioid overdose” value in data set [1] (6 mg/kg) is given as 80%. For the same molecule, the metabolic stability result in data set [6] was “metabolically instable”. The “effect on ROS levels” value in data set [3] is given as “reduces the ROS levels back to saline treated levels”. Also, in data set [5] (setting [11]), the “# dead” value is on record as 1, the Survival percent is recorded as 75% and the Survival rate came out at 0.75.

A word on the solubility: it is the concentration that dissolves in the medium under given conditions. Read a low solubility as little dissolved substance.

Source of the values: patent publication US12617807B2, “Long lasting opioid reversal using hydrogen peroxide-induced release in blood” (University of Cincinnati, priority 2021, dated 2026).
